Assay results from US9393221B2, “Methods and compounds for reducing intracellular lipid storage” (THE GENERAL HOSPITAL CORPORATION, priority 2011, dated 2016).
Where a name gives a salt, the structure may show the parent alone.

What follows are compounds tested on ATGL-KO iPSCs (assay: High throughput iPSC chemical screening, Oil Red O (ORO) lipid accumulation). Settings: glycolytic switch compounds.
Assay type: cell-based, mouse
Wherever Z-score is given: test concentration or dose not given here.

With `Clc1ccc(C(Cn2ccnc2)OCc2csc3c(Cl)cccc23)c(Cl)c1` (stereo not shown) [Sertaconazole nitrate] the “Rank in normalized ORO score from screen” value was 464.

Same assay, conditions: normalized ORO level vs DMSO-treated cells; compound present during 7 days differentiation, 96-well; negative = decrease in lipid accumulation

Going from `CC[C@@H](C)C(=O)O[C@H]1[C@H](O)[C@H]2[C@@H](CN3C[C@@H](C)CC[C@H]3[C@@]2(C)O)[C@@H]2C[C@]34O[C@]5(O)[C@@H](OC(=O)[C@@](C)(O)CC)CC[C@@]3(C)[C@@H]5[C@@H](OC(C)=O)[C@@H](OC(C)=O)[C@H]4[C@@]21O` [Protoveratrine A] to `CC[C@H]1OC(=O)[C@H](C)[C@@H](O[C@H]2C[C@@](C)(OC)[C@@H](O)[C@H](C)O2)[C@H](C)[C@@H](O[C@@H]2O[C@H](C)C[C@H](N(C)C)[C@H]2O)[C@](C)(O)C[C@@H](C)/C(=N\OCOCCOC)[C@H](C)[C@@H](O)[C@]1(C)O` [Roxithromycin], the Z-score falls from 1.895 to −1.026.

Going from `CNCCCC1c2ccccc2C=Cc2ccccc21` [Protriptyline hydrochloride] to `CN[C@H]1CC[C@@H](c2ccc(Cl)c(Cl)c2)c2ccccc21` [Sertraline hydrochloride], the Z-score falls from −0.1298 to −1.6299.

Compared with `CC(O)Cn1cnc2c1c(=O)n(C)c(=O)n2C` (stereo not shown) [Proxyphylline], `Cn1c([N+](=O)[O-])cnc1COC(N)=O` [Ronidazole] is higher in Z-score: −0.7317 for the first, 1.5256 for the second.

First: CN1[C@@H]2CCC[C@H]1CC(=O)C2.Cl [Pseudopelletierine hydrochloride]
Second: COc1ccc(C2CNC(=O)C2)cc1OC1CCCC1 (stereo not shown) [Rolipram]
The Z-score of the first is higher: 0.1911 for the first, −0.7794 for the second.

First: COc1ccc(C[C@H](N)C(=O)N[C@H]2[C@@H](O)[C@H](n3cnc4c(N(C)C)ncnc43)O[C@@H]2CO)cc1 [Puromycin dihydrochloride]
Second: COc1ccc(CN(CCN(C)C)c2ccccn2)cc1 [Pyrilamine maleate]
The Z-score of the first is higher: 74.4112 for the first, −1.3015 for the second.

First: NC(=O)c1cnccn1 [Pyrazinamide]
Second: NC(=O)c1ncn([C@@H]2O[C@H](CO)[C@@H](O)[C@H]2O)n1 [Ribavirin]
The Z-score of the first is higher: −1.0312 for the first, −1.5081 for the second.

Compared with `Cc1ncc(CO)c(CO)c1O.Cl` [Pyridoxine hydrochloride], `CC(C)(C)NCC(O)c1ccc(O)c(CO)c1` (stereo not shown) [Salbutamol] is lower in Z-score: 1.366 for the first, −0.9959 for the second.

First: CCc1nc(N)nc(N)c1-c1ccc(Cl)cc1 [Pyrimethamine]
Second: CCN(CC)CCCC(C)Nc1c2ccc(Cl)cc2nc2ccc(OC)cc12 (stereo not shown) [Quinacrine dihydrochloride dihydrate]
The Z-score of the first is higher: 2.959 for the first, 0.141 for the second.

Going from `CCC1(CC)C(=O)C=CNC1=O` [Pyrithyldione] to `CCC1NC(=O)c2cc(S(N)(=O)=O)c(Cl)cc2N1` (stereo not shown) [Quinethazone], the Z-score falls from 0.5042 to −0.4993.

First: O.O.O=c1c(O)c(-c2ccc(O)c(O)c2)oc2cc(O)cc(O)c12 [Quercetine dihydrate]
Second: Oc1ccc(C=Cc2cc(O)cc(O)c2)cc1 [Resveratrol]
The Z-score of the first is lower: −0.8659 for the first, 11.669 for the second.

Going from `O=C(O)[C@]1(O)C[C@@H](O)[C@@H](O)[C@H](O)C1` [Quinic acid] to `NC[C@H]1O[C@H](O[C@H]2[C@H](O[C@@H]3O[C@H](CO)[C@@H](O)[C@H]3O)[C@@H](O)[C@H](N)C[C@@H]2N)[C@H](N)[C@@H](O)[C@@H]1O` [Ribostamycin sulfate salt], the Z-score falls from 1.0976 to −0.4737.

Compared with `C=C[C@H]1C[N@@]2CC[C@H]1C[C@@H]2[C@@H](O)c1ccnc2ccc(OC)cc12` [Quinidine hydrochloride monohydrate], `COc1ccc2c3c([nH]c2c1)[C@H]1C[C@H]2[C@H](C[C@@H](O)[C@H](OC)[C@H]2C(=O)O)CN1CC3.Cl` [Reserpinic acid hydrochloride] is lower in Z-score: 6.798 for the first, −1.3417 for the second.

Going from `CC(=O)SCC(Cc1ccccc1)C(=O)NCC(=O)OCc1ccccc1` (stereo not shown) [Racecadotril] to `CC(C)(C)NC(=O)[C@@H]1C[C@@H]2CCCC[C@@H]2CN1C[C@@H](O)[C@H](Cc1ccccc1)NC(=O)[C@H](CC(N)=O)NC(=O)c1ccc2ccccc2n1` [Saquinavir mesylate], the Z-score rises from 0.516 to 1.027.

Going from `O=C(c1ccc(OCCN2CCCCC2)cc1)c1c(-c2ccc(O)cc2)sc2cc(O)ccc12` [Raloxifene hydrochloride] to `CCOc1cc(CC(=O)N[C@@H](CC(C)C)c2ccccc2N2CCCCC2)ccc1C(=O)O` [Repaglinide], the Z-score rises from −0.8574 to −0.2231.

Compared with `CCOC(=O)[C@H](CCc1ccccc1)N[C@@H](C)C(=O)N1[C@H](C(=O)O)C[C@@H]2CCC[C@@H]21` [Ramipril], `COC(=O)[C@H]1[C@H]2C[C@H]3c4[nH]c5ccccc5c4CCN3C[C@H]2CC[C@@H]1O` [Rauwolscine hydrochloride] is lower in Z-score: 1.188 for the first, −0.7161 for the second.

Going from `CNC(=C[N+](=O)[O-])NCCSCc1ccc(CN(C)C)o1` [Ranitidine hydrochloride] to `CCN1CCC[C@H]1CNC(=O)c1c(OC)ccc(Br)c1OC` [Remoxipride Hydrochloride], the Z-score rises from −0.5642 to −0.4559.

First: COC(=O)[C@H]1[C@H]2C[C@@H]3c4[nH]c5cc(OC)ccc5c4CCN3C[C@H]2C[C@@H](OC(=O)/C=C/c2cc(OC)c(OC)c(OC)c2)[C@@H]1OC [Rescinnamin]
Second: COC(=O)[C@H]1[C@H]2C[C@@H]3c4[nH]c5cc(OC)ccc5c4CCN3C[C@H]2C[C@@H](OC(=O)c2cc(OC)c(OC)c(OC)c2)[C@@H]1OC [Reserpine]
The Z-score of the first is higher: 1.097 for the first, −0.083 for the second.

First: CC1=C(/C=C/C(C)=C/C=C/C(C)=C/C(=O)O)C(C)(C)CCC1 [Retinoic acid]
Second: CCC(=O)[C@@]1(C)[C@H](C)C[C@H]2[C@@H]3CCC4=CC(=O)C=C[C@]4(C)[C@H]3[C@@H](O)C[C@@]21C [Rimexolone]
The Z-score of the first is lower: −0.7042 for the first, −0.4134 for the second.

Going from `Cc1cc2nc3c(=O)[nH]c(=O)nc-3n(C[C@H](O)[C@H](O)[C@H](O)CO)c2cc1C` [Riboflavine] to `COc1cc2c(cc1O)[C@@H]1Cc3ccc(OC)c(O)c3CN1CC2` [Scoulerine], the Z-score rises from 0.1165 to 19.9884.

Compared with `COc1ccn(C)c(=O)c1C#N` [Ricinine], `COc1cc2ccc(=O)oc2cc1O` [Scopoletin] is higher in Z-score: −1.4299 for the first, 0.6027 for the second.

First: CO[C@H]1/C=C/O[C@@]2(C)Oc3c(C)c(O)c4c(c3C2=O)C2=NC3(CCN(CC(C)C)CC3)NC2=C(NC(=O)/C(C)=C\C=C\[C@H](C)[C@H](O)[C@@H](C)[C@@H](O)[C@@H](C)[C@H](OC(C)=O)[C@@H]1C)C4=O [Rifabutin]
Second: CO[C@H]1/C=C/O[C@@]2(C)Oc3c(C)c(O)c4c(O)c(c(/C=N/N5CCN(C)CC5)c(O)c4c3C2=O)NC(=O)/C(C)=C\C=C\[C@H](C)[C@H](O)[C@@H](C)[C@@H](O)[C@@H](C)[C@H](OC(C)=O)[C@@H]1C [Rifampicin]
The Z-score of the first is higher: 1.521 for the first, −0.5227 for the second.

Going from `C1COC(NC(C2CC2)C2CC2)=N1` [Rilmenidine hemifumarate] to `C1CCN2C[C@@H]3C[C@@H](CN4CCCC[C@@H]34)[C@H]2C1` [Sparteine (−)], the Z-score rises from −1.0936 to −0.3524.

First: Cc1nc2n(c(=O)c1CCN1CCC(c3noc4cc(F)ccc34)CC1)CCCC2 [Risperidone]
Second: c1ccc2c(c1)CCCc1cc(NCCN3CCOCC3)nnc1-2 [SR-95639A]
The Z-score of the first is higher: −0.0533 for the first, −0.7703 for the second.

First: CC(NCCc1ccc(O)cc1)C(O)c1ccc(O)cc1 (stereo not shown) [Ritodrine hydrochloride]
Second: CC(C)Cc1ccc([C@H](C)C(=O)O)cc1 [S-(+)-ibuprofen]
The Z-score of the first is higher: 0.3787 for the first, −1.4076 for the second.

First: CN(C)[C@@H]1C(O)=C(C(=O)NCN2CCCC2)C(=O)[C@@]2(O)C(O)=C3C(=O)c4c(O)cccc4[C@@](C)(O)[C@H]3C[C@@H]12 [Rolitetracycline]
Second: CCN(CC)C(=O)N[C@H]1C[C@@H]2c3cccc4[nH]cc(c34)C[C@H]2N(C)C1.O=C(O)/C=C\C(=O)O [S(−)-terguride hydrogen maleate]
The Z-score of the first is higher: −0.3523 for the first, −1.0498 for the second.

Compared with `O=[N+]([O-])c1cc([As](=O)(O)O)ccc1O` [Roxarsone], `NCCc1c[nH]c2ccc(O)cc12` [Serotonin hydrochloride] is lower in Z-score: −0.5936 for the first, −0.8664 for the second.

First: OCc1cc(C(O)CNCCCCCCOCCCCc2ccccc2)ccc1O (stereo not shown) [Salmeterol]
Second: C#CCN(C)[C@H](C)Cc1ccccc1 [Selegiline hydrochloride]
The Z-score of the first is lower: 0.4502 for the first, 2.279 for the second.

Compared with `C[C@@H]1NCCc2cc(O)c(O)cc21` [Salsolinol hydrobromide], `CCC(C)(C)C(=O)O[C@H]1C[C@@H](C)C=C2C=C[C@H](C)[C@H](CC[C@@H]3C[C@@H](O)CC(=O)O3)[C@H]21` [Simvastatin] is higher in Z-score: 0.8772 for the first, 15.173 for the second.

Compared with `C[n+]1cc2c3c(ccc2c2ccc4cc5c(cc4c21)OCO5)OCO3` [Sanguinarine], `COc1ccc2c(OC)c3ccoc3nc2c1OC` [Skimmianine] is lower in Z-score: 31.0936 for the first, −1.2252 for the second.

Compared with `Br.C[N+]1([O-])[C@@H]2CC(OC(=O)[C@H](CO)c3ccccc3)C[C@H]1[C@@H]1O[C@@H]12` (stereo partly shown) [Scopolamin-N-oxide hydrobromide], `CN1[C@@H]2C[C@@H](OC(=O)[C@H](CO)c3ccccc3)C[C@H]1[C@@H]1O[C@@H]12` [Scopolamine hydrochloride] is lower in Z-score: 0.9998 for the first, 0.9672 for the second.

First: O=C1C=C2C=C[C@@H]3C[C@@]2(O1)[C@H]1CCCCN31 [Securinine]
Second: C=C1C/C(=C/C)C(=O)O[C@@H]2CCN3CC=C(COC(=O)[C@]1(C)O)[C@H]23 [Seneciphylline]
The Z-score of the first is higher: −0.5036 for the first, −1.7519 for the second.

Going from `Clc1ccc(C(Cn2ccnc2)OCc2csc3c(Cl)cccc23)c(Cl)c1` (stereo not shown) [Sertaconazole nitrate] to `O=C(CCCN1CCC2(CC1)C(=O)NCN2c1ccccc1)c1ccc(F)cc1` [Spiperone], the Z-score falls from −0.4658 to −1.6819.

Going from `CN[C@@H]1[C@@H](O)[C@@H](O[C@@H]2[C@@H](O)[C@H](O[C@H]3OC(CN)=CC[C@H]3N)[C@@H](N)C[C@H]2N)OC[C@]1(C)O` [Sisomicin sulfate] to `CN[C@@H]1[C@H](O)[C@H](NC)[C@H]2O[C@@]3(O)C(=O)C[C@@H](C)O[C@H]3O[C@@H]2[C@H]1O` [Spectinomycin dihydrochloride], the Z-score rises from −0.7041 to −0.1287.

Compared with `C[C@@H]1CC[C@@]2(NC1)O[C@H]1C[C@H]3[C@@H]4CC=C5C[C@@H](O)CC[C@]5(C)[C@H]4CC[C@]3(C)[C@H]1[C@@H]2C` [Solasodine], `CC(C)NCC(O)c1ccc(NS(C)(=O)=O)cc1` (stereo not shown) [Sotalol hydrochloride] is higher in Z-score: −0.5386 for the first, 0.2363 for the second.

For `CC(=O)N[C@@H](CC(=O)N[C@@H](CCC(=O)O)C(=O)O)C(=O)O` [Spaglumic acid], the Z-score was 0.9666.
